This is an account of results in PubChem BioAssay AID330 (DTP/NCI, 2004).

The test deals with P388 leukemia ip, CD2F1 mice, survival T/C. The experiment in a line: NCI In Vivo Anticancer Drug Screen. Data for tumor model P388 Leukemia (intraperitoneal) in CD2F1 (CDF1) mice. The following applies: endpoint: median survival time, higher = longer survival. The method, boiled down: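 Mice carrying the transplanted tumor received test compound or vehicle. Survival was recorded in each group, and the value is the treated-group measurement divided by that of the vehicle-treated control group.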

[1] abbreviates: dose: 50.0 mg/kg/injection, schedule: Q01DX005 (ip), vehicle: Klucel (hydroxypropylcellulose) (HPC).
Where [2] appears, read: dose: 100.0 mg/kg/injection, schedule: Q01DX005 (ip), vehicle: Klucel (hydroxypropylcellulose) (HPC).
Setting [3] is: dose: 200.0 mg/kg/injection, schedule: Q01DX005 (ip), vehicle: Klucel (hydroxypropylcellulose) (HPC).
Where [4] appears, read: dose: 50.0 mg/kg/injection, schedule: Q01DX005 (ip), vehicle: saline with Tween-80.
[5] abbreviates: dose: 100.0 mg/kg/injection, schedule: Q01DX005 (ip), vehicle: saline with Tween-80.
Setting [6] is: dose: 60.0 mg/kg/injection, schedule: Q01DX005 (ip), vehicle: Klucel (hydroxypropylcellulose) (HPC).
The mark [7] stands for this setting: dose: 50.0 mg/kg/injection, schedule: Q01DX009 (ip), vehicle: saline.
Where [8] appears, read: dose: 100.0 mg/kg/injection, schedule: Q01DX009 (ip), vehicle: saline.
[9] abbreviates: dose: 200.0 mg/kg/injection, schedule: Q01DX009 (ip), vehicle: saline.

Molecules are shown by their SMILES. “And” between values parts separate entries of the source, which are not always exact repeats. Identical values can stand only once. Toxic doses and inconclusive results are not listed. Numbered stars: 1 amine (or outer) side, 2 acyl side, 3 side chain; on linkers, the order of the positions; unused ones are H or OH. Square brackets hold non-standard residues; d marks the D form. Peptide text beside a SMILES is read from it. * marks the point of attachment. X18 = CCC(=O)CC1CC(C)CC(C(=O)[*:2])N1[*:1]; X17 = CCCCCCCCC(C)C(=O)*; Aib = CC(C)(N)C(=O)O; X19 = CC(CN(C)CCO)N*

For `O=CN1CCc2cc3c(cc2C1Cc1cc2c(cc1Br)OCO2)OCO3` (configuration not stated), the T/C by setting is: (dose: 25.0 mg/kg/injection, schedule: Q01DX001 (ip), vehicle: saline + alcohol) 99 % of control; (dose: 50.0 mg/kg/injection, schedule: Q01DX001 (ip), vehicle: saline + alcohol) 103 % of control; (dose: 100.0 mg/kg/injection, schedule: Q01DX001 (ip), vehicle: saline + alcohol) 100 % of control.
Take `CN(C)CCO[Si](C)(C)C[Si](C)(C)OCCN(C)C`: the T/C is, setting by setting: (dose: 60.0 mg/kg/injection, schedule: Q01DX005 (ip), vehicle: saline) 107 % of control; (dose: 120.0 mg/kg/injection, schedule: Q01DX005 (ip), vehicle: saline) 102 % of control; (dose: 240.0 mg/kg/injection, schedule: Q01DX005 (ip), vehicle: saline) 108 % of control.
With `CC(=O)CC1(O)C(=O)Nc2ccc(Br)cc21` (configuration not stated), the T/C is 100 % of control (dose: 50.0 mg/kg/injection, schedule: Q01DX009 (ip), vehicle: Klucel (hydroxypropylcellulose) (HPC)); 108 % of control (dose: 100.0 mg/kg/injection, schedule: Q01DX009 (ip), vehicle: Klucel (hydroxypropylcellulose) (HPC)); 92 % of control (dose: 200.0 mg/kg/injection, schedule: Q01DX009 (ip), vehicle: Klucel (hydroxypropylcellulose) (HPC)).
Consider `O=C(O)CCCSC1=CC(=O)c2ccccc2C1=O`, for which the T/C reads like this: (dose: 1.56 mg/kg/injection, schedule: Q04DX003 (ip), vehicle: DMSO) 89 % of control; (dose: 3.12 mg/kg/injection, schedule: Q04DX003 (ip), vehicle: DMSO) 96 % of control; (dose: 6.25 mg/kg/injection, schedule: Q04DX003 (ip), vehicle: DMSO) 100 % of control and 93 % of control; (dose: 12.5 mg/kg/injection, schedule: Q04DX003 (ip), vehicle: DMSO) 100 % of control.
On to `Cc1ccc(S(=O)(=O)N2C(=N)C(=S)N(C)C2=O)cc1`, for which the T/C runs as follows: (dose: 60.0 mg/kg/injection, schedule: Q01DX005 (ip), vehicle: Klucel + Tween-80) 101 % of control; (dose: 120.0 mg/kg/injection, schedule: Q01DX005 (ip), vehicle: Klucel + Tween-80) 111 % of control; (dose: 240.0 mg/kg/injection, schedule: Q01DX005 (ip), vehicle: Klucel + Tween-80) 114 % of control.
Consider `CCC1(C)c2[nH]c3ccccc3c2C(=O)NN1C(C)=O` (configuration not stated), for which the T/C by setting is: under setting [1], 104 % of control; under setting [2], 107 % of control; under setting [3], 112 % of control.
Regarding `CC1(C(=O)O)C2[Se]c3cc[se]c3C2C1(C)C(=O)O` (configuration not stated), the T/C is 100 % of control under setting [4]; 100 % of control under setting [5]; 104 % of control (dose: 200.0 mg/kg/injection, schedule: Q01DX005 (ip), vehicle: saline with Tween-80).
With `Nc1n[nH]c(-c2ccccc2)n1`, the T/C is 117 % of control (dose: 50.0 mg/kg/injection, schedule: Q01DX009 (ip), vehicle: saline with Tween-80) and 101 % of control (dose: 100.0 mg/kg/injection, schedule: Q01DX009 (ip), vehicle: saline with Tween-80).
`C[Si](C)(CC[Si](C)(C)OS(C)(=O)=O)OS(C)(=O)=O`: the T/C was 101 % of control under setting [1], 99 % of control under setting [2] and 89 % of control under setting [3].
Consider `COc1ccc2c(NCCCCCCCCNc3c4ccc(OC)cc4nc4c(OC)cccc34)c3cccc(OC)c3nc2c1`, for which the T/C reads like this: (dose: 0.63 mg/kg/injection, schedule: Q01DX009 (ip), vehicle: other) 166 % of control; (dose: 2.5 mg/kg/injection, schedule: Q01DX009 (ip), vehicle: other) 120 % of control; (dose: 5.0 mg/kg/injection, schedule: Q01DX009 (ip), vehicle: other) 86 % of control.
`CCCCCCCCC(C)C(=O)N1CCCC1C(=O)N1C(CC(=O)CC)CC(C)CC1C(=O)NC(C)C(=O)NC(C)(C)C(=O)NC(C)(C)C(=O)NC(C(=O)NC(C)C(=O)NC(C)(C)C(=O)NC(C)(C)C(=O)NC(C)CN(C)CCO)C(C)CC` (configuration not stated) (X17-P[X18]A[Aib][Aib]IA[Aib][Aib]-X19; configuration not given here): the T/C was 120 % of control (dose: 0.62 mg/kg/injection, schedule: Q01DX009 (ip), vehicle: Klucel (hydroxypropylcellulose) (HPC)); 118 % of control (dose: 1.25 mg/kg/injection, schedule: Q01DX009 (ip), vehicle: Klucel (hydroxypropylcellulose) (HPC)); 110 % of control (dose: 2.5 mg/kg/injection, schedule: Q01DX009 (ip), vehicle: Klucel (hydroxypropylcellulose) (HPC)).
For `CC[N+](CC)(CC)c1ccccc1`, the T/C is 105 % of control (dose: 6.25 mg/kg/injection, schedule: Q04DX002 (ip), vehicle: saline); 111 % of control (dose: 12.5 mg/kg/injection, schedule: Q04DX002 (ip), vehicle: saline); 100 % of control and 104 % of control (dose: 25.0 mg/kg/injection, schedule: Q04DX002 (ip), vehicle: saline).
Consider `CSC1=CC(=NCc2ccccc2)CC(C)(C)S1`, for which the T/C (dose: 15.0 mg/kg/injection, schedule: Q01DX005 (ip), vehicle: Klucel (hydroxypropylcellulose) (HPC)) is 110 % of control; the T/C (dose: 30.0 mg/kg/injection, schedule: Q01DX005 (ip), vehicle: Klucel (hydroxypropylcellulose) (HPC)) is 104 % of control; the T/C under setting [6] was 101 % of control and 105 % of control.
As for `C1CCN(CN2CCCCC2)CC1`, the T/C reads like this: under setting [7], 104 % of control; under setting [8], 108 % of control.
For the compound `CCN(CC)Cc1cc(N=Nc2cc(OC)c(N=Nc3ccc([N+](=O)[O-])cc3)cc2OC)c2cccnc2c1O`, the T/C is 107 % of control (dose: 25.0 mg/kg/injection, schedule: Q01DX005 (ip), vehicle: Klucel (hydroxypropylcellulose) (HPC)); 106 % of control and 107 % of control and 114 % of control under setting [1]; 112 % of control and 117 % of control and 123 % of control under setting [2]; 112 % of control and 117 % of control under setting [3]; 116 % of control (dose: 400.0 mg/kg/injection, schedule: Q01DX005 (ip), vehicle: Klucel (hydroxypropylcellulose) (HPC)).
For `CN1C2CCC1C(Br)C=C2c1ccccc1` (configuration not stated), the T/C (dose: 50.0 mg/kg/injection, schedule: Q01DX005 (ip), vehicle: saline) was 109 % of control.
Consider `COc1ccc(C2c3cc4c(cc3OC3(N5CCCC5)CCCCC23)OCO4)cc1` (configuration not stated), for which the T/C is 99 % of control under setting [6]; 94 % of control (dose: 120.0 mg/kg/injection, schedule: Q01DX005 (ip), vehicle: Klucel (hydroxypropylcellulose) (HPC)); 88 % of control (dose: 240.0 mg/kg/injection, schedule: Q01DX005 (ip), vehicle: Klucel (hydroxypropylcellulose) (HPC)).
Turning to `CCCCCCCCCCCC(=O)N(CCO)CCc1ccccc1`, the T/C by setting is: (dose: 25.0 mg/kg/injection, schedule: Q01DX009 (ip), vehicle: saline) 101 % of control and 91 % of control; under setting [7], 101 % of control and 109 % of control and 95 % of control; under setting [8], 100 % of control and 103 % of control; under setting [9], 103 % of control and 110 % of control.
For `COc1c(CBr)c(CBr)c(OC)c2c1C(=O)c1ccccc1C2=O`, the T/C reads like this: (dose: 12.5 mg/kg/injection, schedule: Q01DX005 (ip), vehicle: saline with Tween-80) 100 % of control; (dose: 25.0 mg/kg/injection, schedule: Q01DX005 (ip), vehicle: saline with Tween-80) 99 % of control; under setting [4], 100 % of control and 112 % of control; under setting [5], 95 % of control.
In the case of `NC(CC(=O)O)C(=O)OCc1cccc(N=Nc2ccccc2)c1` (configuration not stated), the T/C is 99 % of control (dose: 50.0 mg/kg/injection, schedule: Q04DX003 (ip), vehicle: saline with Tween-80); 90 % of control (dose: 100.0 mg/kg/injection, schedule: Q04DX003 (ip), vehicle: saline with Tween-80); 93 % of control (dose: 200.0 mg/kg/injection, schedule: Q04DX003 (ip), vehicle: saline with Tween-80).
Regarding `CC(C)NC(=O)c1ccc(CBr)cc1`, the T/C reads like this: (dose: 1.56 mg/kg/injection, schedule: Q01DX009 (ip), vehicle: other) 95 % of control; (dose: 3.13 mg/kg/injection, schedule: Q01DX009 (ip), vehicle: other) 95 % of control; (dose: 6.25 mg/kg/injection, schedule: Q01DX009 (ip), vehicle: other) 98 % of control; (dose: 12.5 mg/kg/injection, schedule: Q01DX009 (ip), vehicle: other) 93 % of control; (dose: 25.0 mg/kg/injection, schedule: Q01DX009 (ip), vehicle: other) 112 % of control; (dose: 50.0 mg/kg/injection, schedule: Q01DX009 (ip), vehicle: other) 99 % of control.
As to `CC(Cc1ccc(O)cc1)NCC(O)c1cc(O)cc(O)c1` (configuration not stated), the T/C is 96 % of control under setting [7]; 99 % of control and 87 % of control (dose: 66.0 mg/kg/injection, schedule: Q01DX009 (ip), vehicle: saline); 99 % of control and 100 % of control under setting [8]; 91 % of control and 93 % of control (dose: 150.0 mg/kg/injection, schedule: Q01DX009 (ip), vehicle: saline); 112 % of control under setting [9].
